According to patent US4767767A, “2-pyrrolidinylethyl-2-(7-trifluoromethyl-4-quinolyl-aminobenzoate having analgesic, antipyretic and anti-inflammatory activities” (Ferrer Internacional S.A., priority 1982, dated 1988):
Read-outs that look alike come from different tables or passages of the source.

Legend:
[1] = tested on: brewer's yeast test in rat; experiment: analgesic activity, brewer's yeast test in rat (Winter et al. 1965); assay type: in vivo; settings: read-out: Analgesic activity ED50
Source text: (§1) The compounds show an outstanding analgesic activity, especially upon oral application versus the brewer's yeast test in rat as described by Winter et al. (J. Pharm. Exp. Ther., 150(1), 165-171, 1965). Also these compounds have shown anti-inflammatory activity especially upon oral application versus the Carrageenin test in rats as described by Winter et al. (Proc. Soc. Exp. Biol. Med., 111, 544-547, 1962). The results for the analgesic evaluation are expressed as ED50 and those for the anti-inflammatory evaluation expressed as the activity rate observed on administering the compounds at a dose of 5 mg/kg.

[2] = tested on: Carrageenin test in rats; experiment: anti-inflammatory activity, Carrageenin test in rats (Winter et al. 1962); assay type: in vivo, rat; settings: read-out: Antiinflammatory activity
Source text: as §1

[3] = acute oral toxicity LD50 in mice (Reed-Muench method modified by Pizzi); settings: mouse, in vivo; oral administration to mice; as free base
Source text: Moreover, the above compounds have shown a low toxicity which makes them useful in therapy. […] Evaluation was made according to the method by Reed-Muench as modified by Pizzi (Human & Biology, 22(3), 151-190, 1950) by oral administration to mice.

[4] = brewer's yeast test, rat, oral, as free base
[5] = Carrageenin test, rat, oral, dose of 5 mg/kg, as free base

| SMILES | ED50 [1, 4] | inhibition in vivo at 5 mg/kg ([2]; Rattus norvegicus, po) | ED50 ([1]; Rattus norvegicus, po) | LD50 [3] | inhibition in vivo at 5 mg/kg [2, 5] |
| --- | --- | --- | --- | --- | --- |
| CC(=O)Oc1ccccc1C(=O)O [Acetylsalycilic acid, acetylsalicylic acid, reference compound] | 73 mg/kg | 23.2% | – | – | – |
| O=C(OCCN1CCN(c2cccc(C(F)(F)F)c2)CC1)c1ccccc1Nc1ccnc2cc(C(F)(F)F)ccc12 [Antrafenine, reference compound] | – | 3.6% | 43 mg/kg | – | – |
| O=C(OCCN1CCCC1)c1ccccc1Nc1ccnc2cc(Cl)ccc12 [Example 1, 2-Pyrrolidinylethyl 2-(7-chloro-4-quinolyl)aminobenzoate] | 38 mg/kg | – | – | 2000 mg/kg | 35.6% |
| O=C(OCCN1CCCC1)c1ccccc1Nc1ccnc2cc(C(F)(F)F)ccc12 [Example 2, 2-Pyrrolidinylethyl 2-(7-trifluoromethyl-4-quinolyl)aminobenzoate] | 2.9 mg/kg | – | – | 630 mg/kg | 38% |
| O=C(OCCN1CCCCC1)c1ccccc1Nc1ccnc2cc(Cl)ccc12 [Example 3, 2-Piperidinylethyl-2-(7-chloro-4-quinolyl)aminobenzoate] | 67 mg/kg | – | – | > 2000 mg/kg | 23.1% |
| O=C(OCCN1CCCCC1)c1ccccc1Nc1ccnc2cc(C(F)(F)F)ccc12 [Example 4, 2-Piperidinylethyl 2-(7-trifluoromethyl-4-quinolyl)aminobenzoate] | 3 mg/kg | – | – | 635 mg/kg | 23.2% |
| O=C(OCCN1CCCCCC1)c1ccccc1Nc1ccnc2cc(Cl)ccc12 [Example 5, 2-Homopiperidinylethyl 2-(7-chloro-4-quinolyl)aminobenzoate] | 5.4 mg/kg | – | – | – | 17.3% |
| O=C(OCCN1CCCCCC1)c1ccccc1Nc1ccnc2cc(C(F)(F)F)ccc12 [Example 6, 2-Homopiperidinylethyl 2-(7-trifluoromethyl-4-quinolyl)aminobenzoate] | 7 mg/kg | – | – | – | 27.9% |
| O=C(OCCOCCN1CCCC1)c1ccccc1Nc1ccnc2cc(Cl)ccc12 [Example 7, 2-(2-Pyrrolidineethoxy)ethyl 2-(7-chloro-4-quinolyl)aminobenzoate] | 18.5 mg/kg | – | – | – | 5.1% |
| O=C(OCCOCCN1CCCC1)c1ccccc1Nc1ccnc2cc(C(F)(F)F)ccc12 [Example 8, 2-(2-Pyrrolidineethoxy)ethyl 2-(7-trifluoromethyl-4-quinolyl)aminobenzoate] | 14.7 mg/kg | – | – | – | 26.2% |
| O=C(OCCOCCN1CCCCC1)c1ccccc1Nc1ccnc2cc(Cl)ccc12 [Example 9] | 21.7 mg/kg | – | – | – | 33.2% |
| O=C(OCCOCCN1CCCCCC1)c1ccccc1Nc1ccnc2cc(Cl)ccc12 [Example 11, 2-(2-Homopiperidineethoxy)ethyl 2-(7-chloro-4-quinolyl)aminobenzoate] | 13.3 mg/kg | – | – | – | 21.2% |
| O=C(OCCOCCN1CCCCCC1)c1ccccc1Nc1ccnc2cc(C(F)(F)F)ccc12 [Example 12, 2-(2-Homopiperidineethoxy)ethyl 2-(7-trifluoromethyl-4-quinolyl)aminobenzoate] | 6.6 mg/kg | – | – | – | 28.8% |
| O=C(OCC1CCCCO1)c1ccccc1Nc1ccnc2cc(Cl)ccc12 (stereo not shown) [Example 14, 2-Tetrahydropyranylmethyl 2-(7-chloro-4-quinolyl)aminobenzoate] | 22 mg/kg | – | – | – | 19.5% |
| O=C(OCC1CCCCO1)c1ccccc1Nc1ccnc2cc(C(F)(F)F)ccc12 (stereo not shown) [Example 15, 2-Tetrahydropyranylmethyl 2-(7-trifluoromethyl-4-quinolyl)aminobenzoate] | 9.3 mg/kg | – | – | – | 26.1% |
| O=C(OCOCc1ccccc1)c1ccccc1Nc1ccnc2cc(Cl)ccc12 [Example 16, Benzyloxymethyl 2-(7-chloro-4-quinolyl)aminobenzoate] | 6.3 mg/kg | – | – | > 8000 mg/kg | 27.7% |
| O=C(OCOCc1ccccc1)c1ccccc1Nc1ccnc2cc(C(F)(F)F)ccc12 [Example 17, Benzyloxymethyl 2-(7-trifluoromethyl-4-quinolyl)aminobenzoate] | 64.5 mg/kg | – | – | – | 30.5% |
| O=C(OCOC(=O)c1ccccc1Nc1ccnc2cc(Cl)ccc12)c1ccccc1 [Example 18, Benzoyloxymethyl 2-(7-chloro-4-quinolyl)aminobenzoate] | 82.5 mg/kg | – | – | – | 31% |
| O=C(OCOC(=O)c1ccccc1Nc1ccnc2cc(C(F)(F)F)ccc12)c1ccccc1 [Example 19, Benzoyloxymethyl 2-(7-trifluoromethyl-4-quinolyl)aminobenzoate] | 3.8 mg/kg | – | – | – | 30.5% |
| O=C(OC1OC(=O)c2ccccc21)c1ccccc1Nc1ccnc2cc(Cl)ccc12 (stereo not shown) [Example 20, 1(3H)-isobenzofuranone-3-yl 2-(7-chloro-4-quinolyl)aminobenzoate] | 71 mg/kg | – | – | – | 26.2% |
| O=C(OC1OC(=O)c2ccccc21)c1ccccc1Nc1ccnc2cc(C(F)(F)F)ccc12 (stereo not shown) [Example 21, 1(3H)-isobenzofuranone-3-yl 2-(7-trifluoromethyl-4-quinolyl)aminobenzoate] | 26 mg/kg | – | – | – | 38.4% |
| O=C(OCC(O)CO)c1ccccc1Nc1ccnc2c(C(F)(F)F)cccc12 (stereo not shown) [Floctafenine, reference compound] | 2.2 mg/kg | – | – | – | 21.6% |
| O=C(OCC(O)CO)c1ccccc1Nc1ccnc2cc(Cl)ccc12 (stereo not shown) [Glafenine, reference compound] | – | 25.6% | 26.5 mg/kg | 2100 mg/kg | – |
